Experiments:
Experiment in all cases: relative viability (nuclei count vs DMSO), 5 days (fraction); higher = more cells survive
Dabrafenib = compound: CC(C)(C)c1nc(-c2cccc(NS(=O)(=O)c3c(F)cccc3F)c2F)c(-c2ccnc(N)n2)s1 [Dabrafenib]
Outline: (§1)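 A plate was accepted only when its control CV was below 25% and the cells had doubled at least once. Viability is defined from nuclear counts as treated wells divided by vehicle wells, with the median taken across plates. That median covers lung cancer cell lines grown in 1536-well plates, dosed by pinning at five √10-spaced library-drug concentrations, and counted in MetaXpress from 4× Hoechst images after 5 days.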

VX-702 = compound: NC(=O)c1ccc(N(C(N)=O)c2c(F)cccc2F)nc1-c1ccc(F)cc1F [VX-702]
Outline: as §1

Dabrafenib + Navitoclax = compound: CC(C)(C)c1nc(-c2cccc(NS(=O)(=O)c3c(F)cccc3F)c2F)c(-c2ccnc(N)n2)s1 [Dabrafenib] + CC1(C)CCC(c2ccc(Cl)cc2)=C(CN2CCN(c3ccc(C(=O)NS(=O)(=O)c4ccc(N[C@H](CCN5CCOCC5)CSc5ccccc5)c(S(=O)(=O)C(F)(F)F)c4)cc3)CC2)C1 [Navitoclax] (partner 0.5 µM)
Outline: (§2)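 Relative viability divides the nuclei count in treated wells by that in vehicle wells. Lung cancer cell lines were seeded in 1536-well plates, dosed by pin tool the next day, and fixed and stained after 5 days in one step with final 0.05% Triton X-100, 1% formaldehyde and 1 ug/ml Hoechst. Dosing was a single drug or a fixed anchor-drug dose plus five library-drug doses (not always all listed) in √10 steps, and values are medians of duplicate plates imaged at 4×.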

Dabrafenib + Foretinib = compound: CC(C)(C)c1nc(-c2cccc(NS(=O)(=O)c3c(F)cccc3F)c2F)c(-c2ccnc(N)n2)s1 [Dabrafenib] + COc1cc2c(Oc3ccc(NC(=O)C4(C(=O)Nc5ccc(F)cc5)CC4)cc3F)ccnc2cc1OCCCN1CCOCC1 [Foretinib] (partner 0.25 µM)
Outline: as §2

Cell Line	relative viability (Dabrafenib; 0.003 µM)	relative viability (Dabrafenib; 0.009487 µM)	relative viability (Dabrafenib; 0.03 µM)	relative viability (Dabrafenib; 0.09487 µM)	relative viability (Dabrafenib; 0.3 µM)	relative viability (VX-702; 0.02 µM)	relative viability (VX-702; 0.2 µM)	relative viability (VX-702; 0.6325 µM)	relative viability (VX-702; 2 µM)	relative viability (Dabrafenib + Navitoclax; first compound 0.003 µM)	relative viability (Dabrafenib + Navitoclax; first compound 0.009487 µM)	relative viability (Dabrafenib + Navitoclax; first compound 0.03 µM)	relative viability (Dabrafenib + Navitoclax; first compound 0.09487 µM)	relative viability (Dabrafenib + Navitoclax; first compound 0.3 µM)	relative viability (Dabrafenib + Foretinib; first compound 0.003 µM)	relative viability (Dabrafenib + Foretinib; first compound 0.009487 µM)	relative viability (Dabrafenib + Foretinib; first compound 0.03 µM)	relative viability (Dabrafenib + Foretinib; first compound 0.09487 µM)	relative viability (Dabrafenib + Foretinib; first compound 0.3 µM)
LXF-289	0.923	1	1.16	0.944	1.14	1.01	1.01	1.08	1.02	0.95	0.931	1.04	0.934	0.998	1.01	1.03	0.993	0.931	1.01
NCI-H23	–	0.913	0.85	0.642	0.919	1.07	0.87	1.1	1.16	–	0.855	0.755	0.795	0.957	–	1.04	0.906	0.878	0.873
NCI-H322M	–	1.14	–	0.943	0.9	0.979	0.888	1.01	1.02	–	1.38	–	1.12	1.17	–	1.19	0.75	0.879	0.945
NCI-H441	–	0.96	1.01	0.51	0.766	1.14	0.952	0.934	0.992	–	0.547	0.461	0.543	0.465	–	1.11	0.941	1.05	0.843
NCI-H460	0.965	0.954	0.919	0.968	0.985	1.02	0.95	1.06	0.989	1.17	1.14	1.26	0.998	1.06	0.949	1.01	0.961	0.933	0.993
NCI-H520	0.974	0.941	0.795	0.884	0.921	0.969	0.925	1.03	1.07	1.3	1.11	0.985	1.07	0.936	0.909	0.78	0.455	0.74	0.661
NCI-H596	–	1.13	0.768	1.03	1.1	1.04	0.829	1.02	1.07	0.733	0.996	0.764	1	0.921	–	0.928	0.575	0.686	0.861
NCI-H647	–	0.967	0.71	0.871	1.01	0.855	0.874	0.996	1.14	–	1.07	–	1.08	1.11	1.35	1.16	1.01	1.05	1.38
NCI-H727	–	0.998	0.782	0.902	1.1	1.09	1	0.84	1.04	–	0.608	0.543	0.545	0.825	–	0.886	0.601	0.947	1.1
NCI-H838	0.966	1.07	0.889	0.896	1.05	0.968	0.948	0.984	1.07	1.22	1.29	1.13	1.11	1.28	1	1.06	0.801	0.923	1.1
NCI-H1299	0.991	0.988	0.963	0.92	0.842	1.09	0.994	1.07	1.12	0.997	1.02	1.06	1.01	1.01	1.05	1.09	1.07	1.03	1.08
NCI-H1355	–	0.986	0.986	0.739	1.04	1.07	0.997	1.02	1.08	–	1.01	0.894	–	1.07	–	0.981	0.935	0.809	0.947
NCI-H1395	–	0.971	0.854	0.774	0.788	0.971	0.909	0.97	1.03	–	1.18	1.09	1.01	0.902	0.997	0.892	1.09	0.874	0.82
NCI-H1437	0.939	0.971	1.02	0.971	1.02	0.995	0.973	1.06	1.15	1.14	1.02	1.14	1.07	1.1	1.26	1.27	1.25	1.23	1.26
NCI-H1650	0.944	1.26	0.854	1.07	1.36	1	1.01	1.09	1.02	1.25	1.44	1.21	1.35	1.42	1.03	1.3	0.895	1.45	1.71
NCI-H1651	0.977	0.939	0.953	1.02	0.948	1.02	0.985	0.998	1.06	1.15	1.03	0.997	1.01	1.03	0.725	0.728	0.631	0.799	0.761
NCI-H1666	1.01	0.943	1.03	0.984	1.01	0.968	0.854	0.972	0.75	0.929	–	1.1	0.863	0.998	0.907	0.944	0.951	0.969	1.1
NCI-H1703	1	1.12	0.887	0.843	1.14	0.936	0.91	0.849	1.21	1.33	1.41	1.6	0.951	1.09	0.354	0.327	0.34	0.334	0.447

Source: the supplement of paper PMC10307832
